Assay results published in PubChem BioAssay (NCI).
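48-hour exposure; five concentrations; linearly interpolated endpoints. At the TGI there is no net growth.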

System: SN12K1 renal
Assay: NCI tumour cell line growth inhibition, 48 h

In the case of `Nc1nc(F)nc2c1ncn2C1OC(COP(=O)(O)O)C(O)C1O` (stereo unspecified), the TGI is reported as 277 µM.
